Source: patent publication US12162902B2, “Decarboxylase inhibitors for treating Parkinson's disease” (SAIL BIOMEDICINES, priority 2018, dated 2024)

Target: Tyrosine decarboxylase (tdc) (Enterococcus faecalis (strain EnGen0310 / MMH594), UniProt P0DTQ4)
Assay: Inhibition of tyrosine decarboxylase in vitro (dopamine formed from levodopa, LC-MS)
Type: biochemical
Details: 60 min preincubation of tdc with inhibitor at room temperature, pH 5.5; 9 mM levodopa, 5 min reaction
Procedure: Tyrosine decarboxylase (tdc) was obtained by following a previously published literature procedure (Science, 14 Jun. 2019: Vol. 364, Issue 6445, eaau6323). Tdc (220 nM final concentration) was thawed on ice and then mixed with pyridoxal-5-phosphate (2.2 mM final concentration) in 200 mM sodium acetate buffer, pH 5.5 optionally containing 1 mM TCEP. To this mixture was added inhibitor at a final concentration of 1000, 333, 111, 37, 12, 4.1, 1.4, or 0 μM (final volume: 100 μL; inhibitor was 100-fold concentrated in a solution of DMSO, H2O, or DMSO:H2O (1/1 v/v)). The protein-inhibitor mixture was incubated at room temperature for 60 min. 6 μL of this mixture was then withdrawn from each solution and mixed with 54 μL of 10 mM levodopa in 200 mM sodium acetate buffer pH 5.5. The final concentration of the reaction was 22 nM tdc, 220 μM pyridoxal-5-phosphate, 9 mM levodopa in 200 mM sodium acetate buffer pH 5.5 with 0-100 μM inhibitor. The reaction was proceeded for 5 min at room temperature before quenching by addition of 540 μL acetonitrile containing 0.1 (v/v) formic acid supplemented with 200 nM tolbutamide as an internal standard. The reactions were centrifuged (3,000 g, 10 min), and then 100 μL of each supernatant was transferred to a fresh plate. 100 μL of acetonitrile containing 0.1% (v/v) formic acid supplemented with 200 nM tolbutamide was added. An external standard curve containing 0-150 μM dopamine was prepared in the exact same manner.
Dopamine formed in each reaction was quantified by using an Agilent 6470 triple quadrupole mass spectrometer equipped with an Acquity UPLC. Mobile phase A consisted of H2O containing 10 mM ammonium formate, pH 3.0 and supplemented with 0.1% (v/v) formic acid. Mobile phase B consisted of acetonitrile containing 10 mM ammonium formate, pH 3.0 and supplemented with 0.1% (v/v) formic acid. 5 μL of each sample was injected onto a BEH Amide column (Waters Corporation, 2.1×50 mm, 1.7 μm). The gradient was set to: 100% mobile phase B at 0 min, decreasing linearly to 65% mobile phase B by 1.5 min, held constant at 65% mobile phase B until 2.5 min, ramped back up to 100% mobile phase B by 2.6 min, and held constant at 100% mobile phase B until 4.2 min. The flow rate was 0.6 mL/min. The dopamine was detected by using the mass spectrometer in multiple reaction monitoring (MRM) mode, quantifying the transition 154.1 to 137.0 m/z in positive mode. The fragmentor setting was 74, the collision energy was 9, and the cell accelerator voltage was 4, and the dwell time was 20. Tolbutamide was monitored using MRM and quantifying the transition of 271.1 to 91.0 m/z in positive mode. The fragmentor setting was 88, the collision energy was 37, and the cell accelerator voltage was 4, and the dwell time was 20.
The amount of dopamine was quantified by normalizing the area to the area of tolbutamide internal standard within each sample. This relative response was then compared to that of the standard curve to obtain the dopamine formed within each sample. The concentration of dopamine formed as a function of the inhibitor concentration at the preincubation stage was plotted in GraphPad Prism 8, and the IC50 was calculated using the non-linear fit for the standard IC50 curve equation “[inhibitor] vs response (three parameters).”

Chain of Tyrosine decarboxylase (tdc) (P0DTQ4 whole entry): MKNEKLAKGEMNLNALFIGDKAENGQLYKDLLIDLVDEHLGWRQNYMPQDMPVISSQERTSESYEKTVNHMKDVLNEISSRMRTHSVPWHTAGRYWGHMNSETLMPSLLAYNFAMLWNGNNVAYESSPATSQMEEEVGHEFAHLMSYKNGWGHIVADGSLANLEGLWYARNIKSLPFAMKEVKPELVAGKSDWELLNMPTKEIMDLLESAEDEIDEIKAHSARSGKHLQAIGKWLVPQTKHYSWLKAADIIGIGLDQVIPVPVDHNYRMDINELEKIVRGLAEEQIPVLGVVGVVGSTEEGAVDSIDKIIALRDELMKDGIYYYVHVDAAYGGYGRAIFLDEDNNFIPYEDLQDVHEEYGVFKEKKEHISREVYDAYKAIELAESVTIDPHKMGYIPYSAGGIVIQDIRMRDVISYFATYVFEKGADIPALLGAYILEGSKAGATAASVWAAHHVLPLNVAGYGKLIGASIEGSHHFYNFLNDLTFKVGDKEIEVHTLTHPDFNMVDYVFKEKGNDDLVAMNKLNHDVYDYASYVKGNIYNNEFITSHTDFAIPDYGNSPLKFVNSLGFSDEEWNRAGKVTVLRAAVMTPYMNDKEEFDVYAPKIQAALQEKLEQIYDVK

Row | Molecule | IC50 @ 60 min
1 | NC(Cc1ccc(O)cc1)(C(=O)O)C(F)F (stereo not drawn) [Compound K, 2-amino-3,3-difluoro-2-(4-hydroxybenzyl)propanoic Acid] | Minor inhibition
2 | NC(CF)(Cc1cccc(O)c1)C(=O)O (stereo not drawn) [Compound R, 2-amino-3-fluoro-2-(3-hydroxybenzyl)propanoic Acid] | Minor inhibition

Same assay, conditions: 60 min preincubation of tdc with inhibitor at room temperature, pH 5.5; 9 mM levodopa, 5 min reaction; read-out: IC50 @ 60 min

Row | Molecule | IC50
3 | 2-amino-2-(fluoromethyl)-4-(4-hydroxyphenyl)butanoic acid [Compound U] | > 1000 µM
4 | NC(CF)(Cc1ccc(O)cc1)C(=O)O (single isomer, unassigned) [S] | 4 µM
5 | NC(CF)(Cc1ccc(O)cc1)C(=O)O (single isomer, unassigned) [T] | 82.3 µM
6 | NC(CF)(Cc1ccc(O)c(Cl)c1)C(=O)O (stereo not drawn) [Compound L, 2-amino-2-(3-chloro-4-hydroxybenzyl)-3-fluoropropanoic Acid] | 2.5 µM
7 | NC(CF)(Cc1ccc(O)c(F)c1)C(=O)O (stereo not drawn) [Compound M, 2-amino-3-fluoro-2-(3-fluoro-4-hydroxybenzyl)propanoic Acid] | 3.2 µM
8 | Cc1cc(CC(N)(CF)C(=O)O)ccc1O (stereo not drawn) [Compound N, 2-amino-3-fluoro-2-(4-hydroxy-3-methylbenzyl)propanoic Acid] | 2.6 µM

Same assay, conditions: IC50 @ 60 min, 60 min preincubation of tdc with inhibitor at room temperature, pH 5.5; 9 mM levodopa, 5 min reaction

Row | Molecule | IC50
9 | Cc1cc(CCN)ccc1O [Compound P, 4-(2-aminoethyl)-2-methylphenol] | > 1000 µM
10 | CC(N)(Cc1ccc(O)c(O)c1)C(=O)O (stereo not drawn) [Compound Q, 2-amino-3-(3,4-dihydroxyphenyl)-2-methylpropanoic Acid] | > 1000 µM
11 | COC(=O)NC(C)(Cc1ccc(O)cc1)C(=O)O (stereo not drawn) [Compound V, 3-(4-hydroxyphenyl)-2-((methoxycarbonyl)amino)-2-methylpropanoic Acid] | > 1000 µM
12 | COC(=O)NC(CF)(Cc1ccc(O)cc1)C(=O)O (stereo not drawn) [Compound W, 3-fluoro-2-(4-hydroxybenzyl)-2-((methoxycarbonyl)amino)-propanoic Acid] | > 1000 µM
13 | CC(=O)NC(C)(Cc1ccc(O)cc1)C(=O)O (stereo not drawn) [Compound X, 2-acetamido-3-(4-hydroxyphenyl)-2-methylpropanoic Acid] | > 1000 µM
14 | CC(=O)NC(CF)(Cc1ccc(O)cc1)C(=O)O (stereo not drawn) [Compound Y, 2-acetamido-3-fluoro-2-(4-hydroxybenzyl)propanoic acid] | > 1000 µM
15 | NC(CF)(Cc1ccccc1)C(=O)O (stereo not drawn) [Compound Z, 2-amino-2-benzyl-3-fluoropropanoic Acid] | > 1000 µM
16 | CCC(N)(Cc1ccc(O)cc1)C(=O)O (stereo not drawn) [O, 2-amino-2-(4-hydroxybenzyl)butanoic Acid] | > 1000 µM

Test system: Enterococcus faecalis v583
Assay: Inhibition of E. faecalis decarboxylation activity in vitro (residual levodopa, LC-MS)
Type: cell-based
Details: E. faecalis v583 culture in BHI broth pH 5 with 1.5 mM levodopa, 24 h at 37° C. anaerobic; read-out: IC50 @ 60 min

Row | Molecule | IC50
17 | NC(CF)(Cc1ccc(O)cc1)C(=O)O (single isomer, unassigned) [S] | 2 µM
18 | NC(CF)(Cc1ccc(O)cc1)C(=O)O (single isomer, unassigned) [T] | 18.5 µM

Same assay, conditions: Enterococcus faecalis, V583, E. faecalis v583 culture in BHI broth pH 5 with 1.5 mM levodopa, 24 h at 37° C. anaerobic; read-out: IC50 @ 60 min

Row | Molecule | IC50
19 | CC(N)(Cc1ccc(O)c(O)c1)C(=O)O (stereo not drawn) [Compound Q, 2-amino-3-(3,4-dihydroxyphenyl)-2-methylpropanoic Acid] | > 1000 µM
20 | NC(CF)(Cc1cccc(O)c1)C(=O)O (stereo not drawn) [Compound R, 2-amino-3-fluoro-2-(3-hydroxybenzyl)propanoic Acid] | > 1000 µM
21 | COC(=O)NC(C)(Cc1ccc(O)cc1)C(=O)O (stereo not drawn) [Compound V, 3-(4-hydroxyphenyl)-2-((methoxycarbonyl)amino)-2-methylpropanoic Acid] | > 1000 µM
22 | COC(=O)NC(CF)(Cc1ccc(O)cc1)C(=O)O (stereo not drawn) [Compound W, 3-fluoro-2-(4-hydroxybenzyl)-2-((methoxycarbonyl)amino)-propanoic Acid] | > 1000 µM
23 | CC(=O)NC(C)(Cc1ccc(O)cc1)C(=O)O (stereo not drawn) [Compound X, 2-acetamido-3-(4-hydroxyphenyl)-2-methylpropanoic Acid] | > 1000 µM
24 | CC(=O)NC(CF)(Cc1ccc(O)cc1)C(=O)O (stereo not drawn) [Compound Y, 2-acetamido-3-fluoro-2-(4-hydroxybenzyl)propanoic acid] | > 1000 µM
25 | NC(CF)(Cc1ccccc1)C(=O)O (stereo not drawn) [Compound Z, 2-amino-2-benzyl-3-fluoropropanoic Acid] | > 1000 µM
26 | CCC(N)(Cc1ccc(O)cc1)C(=O)O (stereo not drawn) [O, 2-amino-2-(4-hydroxybenzyl)butanoic Acid] | > 1000 µM

Same assay, conditions: Enterococcus faecalis, V583, read-out: IC50 @ 60 min

Row | Molecule | IC50
27 | Cc1cc(CCN)ccc1O [Compound P, 4-(2-aminoethyl)-2-methylphenol] | > 1000 µM
